From US11883387B2, “PqsR inverse agonists” (HELMHOLTZ-ZENTRUM FÜR INFEKTIONSFORSCHUNG GMBH, priority 2018, dated 2024)
≈ marks a conversion by molar mass, not a printed value. Where two headings read alike, the source gives them in different places.

How the values were obtained:
[1] = Metabolic stability in mouse liver microsomes (MLM); type: in vitro ADME; conditions: 1 μM compound, 0.5 mg/mL MLM, 1 mM NADPH, 37° C., read-out: half-life (t1/2) towards MLM
Experimental: For the evaluation of phase I metabolic stability, the compound (1 μM) was incubated with 0.5 mg/mL MLM (Corning) and 1 mM NADPH at 37° C. for 0, 5, 10, 15 and 30 min. The metabolic stability of Verapamil, Diphenhydramine and Benzydamine (1 μM each) were determined in parallel to confirm the enzymatic activity of the MLM. The incubation was stopped by addition of 2 volumes of acetonitrile containing internal standard (1 μM Leucine Enkephaline). Samples were centrifuged (15 min, 3,500 rpm). Concentration of the remaining test compound at the different time points was analyzed by HPLC-MS/MS and used to determine half-life (t1/2).

PqsR [2] = molecular target: T1, PqsR (Pseudomonas aeruginosa, UniProt Q9I4X0); assay: E. coli based β-galactosidase reporter gene assay (PqsR inverse agonistic activity); type: cell-based; parameters: expressed in transfected cells; host or cells: Escherichia coli DH5α
Procedure, shortened: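 E. coli DH5α carrying pEAL08-2 (tac-driven pqsR with pqsA-lacZ) was grown to OD600 0.2 and incubated with 0.001–10 μM compound plus 50 nM PQS for 2.5 h at 37 °C. β-Galactosidase activity was measured by ONPG conversion in permeabilized cells and normalized between the no-PQS and solvent controls. IC50 came from concentration variation.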

HEK293 cells = assay: Cytotoxicity (MTT) toward HEK293; type: cell-based; conditions: Homo sapiens, 48 h, upper class: or at solubility maximum, read-out: IC50-value towards HEK293
Experimental: (§1) To obtain information regarding the toxicity of our compounds, their impact on the viability of human cells was investigated. HepG2 and HEK293 cells (2×10^5 per well) were seeded in 24-well, flat-bottomed culture plates. 24 h after seeding the cells the incubation was started by the addition of compounds in a final DMSO concentration of 1%. The living cell mass was determined 48 h after treatment with compounds by adding 0.1 volumes of 3-(4,5-dimethylthiazol-2-yl)-2,5-diphenyltetrazolium bromide (MTT) solution (5 mg per mL sterile PBS) (Sigma, St. Louis, MO) to the wells. After incubating the cells for 30 min at 37° C. (atmosphere containing 5% CO2), MTT crystals were dissolved in a solution containing 10% SDS and 0.5% acetic acid in DMSO. The optical density (OD) of the samples was determined photometrically at 570 nm in a FLUOstar Omega plate reader (BMG labtech, Ortenberg, Germany). To obtain inhibition values for each sample, their ODs were related to those of DMSO controls.

HepG2 cells = assay: Cytotoxicity (MTT) toward HepG2; type: cell-based; conditions: Homo sapiens, 48 h, upper class: or at solubility maximum, read-out: IC50-value towards HepG2
Experimental: as §1

[3] = Kinetic Turbidimetric Aqueous Solubility at room temperature for 5 min; type: physicochemical; conditions: PBS buffer, kinetic from dmso stock, 2% DMSO
Procedure, shortened: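 Compound diluted in PBS across typically 0.4–200 μM (final DMSO 2%), held 5 min at room temperature. Turbidity read as absorbance at 620 nm against vehicle control. Four-parameter sigmoidal fit of normalized absorbances with AUC calculation gives Log S.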

[4] = Turbidimetric Aqueous Solubility at 37° C. for 2 h; type: physicochemical; conditions: aqueous buffer, kinetic from dmso stock, 1% DMSO in buffer, estimated precipitation range
Experimental: Turbidimetric Aqueous Solubility at 37° C. for 2 h. Test compound was diluted in buffer to give a range of concentrations (typically 1, 3, 10, 30 and 100 μM, final DMSO concentration 1%) and incubated at 37° C. for 2 hr. Absorbance was measured at a wavelength of 620 nm and the solubility was estimated from the concentration of test compound that produces an increase in absorbance above the vehicle control (i.e., 1% DMSO in buffer). An estimated precipitation range (lower and upper bound) was provided as result.

[5] = test system: P. aeruginosa pyocyanin production; assay: Pyocyanin assay; type: cell-based, P. aeruginosa PA14; conditions: Pseudomonas aeruginosa, PA14, 16 h, read-out: IC50-value towards pyocyanin production, PA14 in PPGAS medium, 16 h
Procedure, shortened: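 PA14 in PPGAS medium from OD600 0.02 grown 16 h at 37 °C, 200 rpm, with compounds. Pyocyanin extracted with chloroform, back-extracted into 0.2 M HCl, OD520 normalised to OD600.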

[6] = Metabolic stability against human hepatic S9 fraction; type: in vitro ADME
Experimental: For the evaluation of combined phase I and phase II metabolic stability, the compound (1 μM) was incubated with 1 mg/mL pooled human liver S9 fraction (BD Gentest), 2 mM NADPH regenerating system, 1 mM UDPGA, 10 mM MgCl2 and 0.1 mM PAPS at 37° C. for 0, 5, 15, 30 and 60 min. The metabolic stability of Testosterone (1 μM) and 7-hydroxycoumarin (1 μM) were determined in parallel to confirm the enzymatic activity of the S9 fraction. The incubation was stopped by precipitation of S9 enzymes with 2 volumes of cold acetonitrile containing internal standard (750 nM Diphenhydramine). Samples were stored on ice for 10 min and precipitated protein was removed by centrifugation (10 min, 4° C., 17,000 g). Concentration of the remaining test compound at the different time points was analyzed by LC-MS/MS (TSQ Quantum Access MAX, Thermo Fisher, Dreieich, Germany) and used to determine half-life (t/2).

[7] = test system: P. aeruginosa PA14 biofilm; assay: Biofilm assay, crystal violet staining (biofilm mass); type: cell-based; conditions: Pseudomonas aeruginosa, PA14, PPGAS medium, read-out: IC50-value towards biofilm formation
Experimental: Commonly used crystal violet (CV) assay procedures (PMID: 3905855, PMID: 10547784, PMID: 22488868) were adapted for determination of biofilm mass. For the cultivation of biofilm in 96 well plates, the protocol described by Frei et al. (PMID: 22488868) was slightly modified by replacement of medium and Pseudomonas strain used. The experiment was performed using P. aeruginosa PA14 strain and PPGAS medium. CV staining was used to detect compound effects on the overall biofilm biomass. Impact on eDNA was assessed by incubation of biofilm with propidium iodine solution (0.05 mg ml^−1) for 24 h and detection of specific florescence at 620 nm (excitation 544 nm) after a thorough washing step with 18 MΩ H2O. (PMID: 16430688)

[8] = test system: production of signal molecules HHQ and PQS; conditions: cited from earlier work
pyocyanin production = conditions: in cellulo; read-out: inhibition of virulence factor pyocyanin production IC50; cited from earlier work
PqsR [9] = molecular target: T1, PqsR; parameters: host or cells: P. aeruginosa; conditions: read-out: IC50 in P. aeruginosa reporter gene assay; cited from earlier work
PqsR [10] = molecular target: T1, PqsR; parameters: expressed in transfected cells; host or cells: Escherichia coli DH5α; conditions: read-out: IC50 in E. coli reporter gene assay; cited from earlier work
[11] = pooled human liver S9 fraction, 1 μM compound, 1 mg/mL pooled human liver S9, phase I and II cofactors, 37° C., read-out: half-life (t1/2) towards human hepatic S9 fraction

T1 sequence (Q9I4X0 whole entry): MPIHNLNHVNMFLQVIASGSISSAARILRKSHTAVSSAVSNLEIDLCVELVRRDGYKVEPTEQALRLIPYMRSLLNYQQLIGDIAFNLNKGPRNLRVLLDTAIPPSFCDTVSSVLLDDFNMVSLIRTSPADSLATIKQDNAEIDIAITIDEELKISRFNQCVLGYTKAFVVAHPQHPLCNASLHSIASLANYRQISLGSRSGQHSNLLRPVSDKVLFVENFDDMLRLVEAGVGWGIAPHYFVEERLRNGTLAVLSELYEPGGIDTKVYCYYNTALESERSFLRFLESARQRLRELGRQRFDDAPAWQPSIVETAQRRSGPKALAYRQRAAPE

In the case of Nc1cc(SCc2nc3cc(Oc4cccc(F)c4)ccc3[nH]2)nc(C(F)(F)F)n1 [Compound 129, 6-(((5-(3-Fluorophenoxy)-1H-benzo[d]imidazol-2-yl)methyl)thio)-2-(trifluoromethyl)pyrimidin-4-amine], the half-life at 1 μM [1] is reported as 0.517 to 1 h, the IC50 (PqsR [2]) is reported as at most 0.05 µM and the IC50 (HEK293 cells) is reported as 25 to 50 µM. The IC50 (HepG2 cells) was 25 to 50 µM.

Compound COc1ccc(-n2cc(CNc3ccnc(C(F)(F)F)c3)nn2)cc1Cl [Compound 017, N-((1-(3-chloro-4-methoxyphenyl)-1H-1,2,3-triazol-4-yl)methyl)-2-(trifluoromethyl)pyridin-4-amine] has a solubility at 5 min [3] of over 50 µM, a solubility at 2 h [4] of 10 to 30 µM (≈ 3.84 to 11.5 µg/mL) and an IC50 (PqsR [2]) of at most 0.05 µM. The IC50 [5] was 0.251 to 1 µM, the half-life at 1 μM [6, 11] was 0.683 to 1 h and the IC50 [7] was at most 0.5 µM.

FC(F)(F)c1cc(NCc2ccc(-c3ccc(Oc4ccccc4)cc3)cn2)ccn1 [Compound 097, N-((5-(4-phenoxyphenyl)pyridin-2-yl)methyl)-2-(trifluoromethyl)pyridin-4-amine] gave a solubility at 5 min [3] of over 10 µM, an IC50 (PqsR [2]) of 0.051 to 0.25 µM and an IC50 (HEK293 cells) of 25 to 50 µM. For the same compound, the IC50 [5] was 0.251 to 1 µM and the IC50 (HepG2 cells) was 25 to 50 µM.

FC(F)(F)Oc1ccc(-n2cc(CNc3ccnc(C(F)(F)F)c3)nn2)cc1 [Compound 012, N-((1-(4-(Trifluoromethoxy)phenyl)-1H-1,2,3-triazol-4-yl)methyl)-2-(trifluoromethyl)pyridin-4-amine] showed an IC50 (PqsR [2]) of at most 0.05 µM, an IC50 (HEK293 cells) of 25 to 50 µM and an IC50 [5] of 1 to 5 µM.

For CCCCCCCc1[nH]c2ccc([N+](=O)[O-])cc2c(=O)c1C(N)=O [2-heptyl-6-nitro-4-oxo-1,4-dihydroquinoline-3-carboxamide], the “reduction of HHQ production” value ([8]; at 15 μM) is listed as 54%, the “reduction of PQS production” value ([8]; at 15 μM) is listed as 37% and the IC50 (pyocyanin production) is listed as 2 µM. The IC50 (PqsR [9]) was 0.4 µM and the IC50 (PqsR [10]) was 0.035 µM.

With FC(F)(F)c1cc(SCc2nc3cc(Oc4ccccc4)ccc3[nH]2)ccn1 [Compound 127, 5-Phenoxy-2-(((2-(trifluoromethyl)pyridin-4-yl)thio)methyl)-1H-benzo[d]imidazole] the solubility at 5 min [3] was over 10 µM, the IC50 (PqsR [2]) was at most 0.05 µM and the IC50 (HEK293 cells) was 25 to 50 µM. It also gave an IC50 [5] of at most 0.25 µM and an IC50 (HepG2 cells) of 25 to 50 µM.

Compound CC(C)Oc1ccc(-c2ncc(CNc3ccnc(C(F)(F)F)c3)cn2)cc1Cl [Compound 108, N-((2-(3-Chloro-4-isopropoxyphenyl)pyrimidin-5-yl)methyl)-2-(trifluoromethyl)pyridin-4-amine] has a solubility at 5 min ([3]; aqueous buffer) of over 25 µM, a solubility at 2 h [4] of 10 to 30 µM (≈ 4.23 to 12.7 µg/mL) and an IC50 (PqsR [2]) of at most 0.05 µM. The IC50 [5] was at most 0.25 µM.

FC(F)(F)Oc1ccc(-n2cc(CNc3ccnc(C(F)(F)F)c3)nn2)cc1Cl [Compound 022, N-((1-(3-Chloro-4-(trifluoromethoxy)phenyl)-1H-1,2,3-triazol-4-yl)methyl)-2-(trifluoromethyl) pyridin-4-amine] showed a half-life at 1 μM [1] of 0.517 to 1 h, a solubility at 5 min [3] of over 25 µM and an IC50 (PqsR [2]) of at most 0.05 µM. The IC50 (HEK293 cells) was 25 to 50 µM, the IC50 [5] was 0.251 to 1 µM and the IC50 (HepG2 cells) was 25 to 50 µM.

Fc1cc(-n2cc(CNc3ccnc(C(F)(F)F)c3)nn2)ccc1Oc1ccccc1 [Compound 028, N-((1-(3-fluoro-4-phenoxyphenyl)-1H-1,2,3-triazol-4-yl)methyl)-2-(trifluoromethyl)pyridin-4-amine] gave an IC50 (PqsR [2]) of at most 0.05 µM, an IC50 (HEK293 cells) of 25 to 50 µM and an IC50 [5] of 0.251 to 1 µM. It also gave an IC50 (HepG2 cells) of 25 to 50 µM.

FC(F)(F)c1cc(SCc2nc3ccc(Oc4ccccc4)cc3o2)ccn1 [Compound 132, 6-Phenoxy-2-(((2-(trifluoromethyl)pyridin-4-yl)thio)methyl)benzo[d]oxazole] showed a solubility at 2 h [4] of 10 to 30 µM (≈ 4.02 to 12.1 µg/mL), an IC50 (PqsR [2]) of 0.051 to 0.25 µM and an IC50 (HEK293 cells) of 25 to 50 µM. It also gave an IC50 [5] of 0.251 to 1 µM and a half-life at 1 μM [6, 11] of over 1 h.

In the case of Fc1cc2nc(CSc3ccnc(C(F)(F)F)c3)[nH]c2cc1F [Compound 122, 5,6-Difluoro-2-(((2-(trifluoromethyl)pyridin-4-yl)thio)methyl)-1H-benzo[d]imidazole], the solubility at 5 min [3] is reported as at least 100 µM, the IC50 (PqsR [2]) is reported as 0.251 to 1 µM and the IC50 (HEK293 cells) is reported as at least 50 µM. For the same compound, the IC50 (HepG2 cells) was at least 50 µM.

For FC(F)(F)c1cc(NCc2csc(-c3ccc(Oc4ccccc4)cc3)n2)ccn1 [Compound 080, N-((2-(4-Phenoxyphenyl)thiazol-4-yl)methyl)-2-(trifluoromethyl)pyridin-4-amine], the solubility at 5 min [3] was over 10 µM, the IC50 (PqsR [2]) was at most 0.05 µM and the IC50 (HEK293 cells) was 25 to 50 µM. For the same compound, the IC50 [5] was 1 to 5 µM and the IC50 (HepG2 cells) was 25 to 50 µM.

FC(F)(F)c1cc(NCc2cnc(-c3ccc(Oc4ccccc4)cc3)s2)ccn1 [Compound 071, N-((2-(4-Phenoxyphenyl)thiazol-5-yl)methyl)-2-(trifluoromethyl)pyridin-4-amine] showed an IC50 (PqsR [2]) of at most 0.05 µM, an IC50 (HEK293 cells) of 25 to 50 µM and an IC50 [5] of 0.251 to 1 µM. The half-life at 1 μM ([6]; human, s9) was over 1 h and the IC50 (HepG2 cells) was 25 to 50 µM.

In the case of Nc1cccc(F)c1C(=O)O [Compound 6FABA], the IC50 ([8]; inhibitor targeting the enzyme PqsA, read-out: IC50 for reduction of production of signal molecules HHQ and PQS) is given as about 100 µM.

Compound Cc1cccc(Oc2ccc3[nH]c(CSc4cc(N)nc(C(F)(F)F)n4)nc3c2)c1 [Compound 128, 6-(((5-(m-Tolyloxy)-1H-benzo[d]imidazol-2-yl)methyl)thio)-2-(trifluoromethyl)pyrimidin-4-amine] has a solubility at 5 min [3] of over 25 µM, an IC50 (PqsR [2]) of at most 0.05 µM and an IC50 (HEK293 cells) of 25 to 50 µM. For the same compound, the IC50 (HepG2 cells) was 25 to 50 µM.
